In US20240398841A1, “BLADDER PERFUSION PHARMACEUTICAL COMPOSITION, PREPARATION METHOD THEREFOR AND APPLICATION THEREOF” (priority 2020, published 2024):
Where “and” joins values, the source holds several entries; their conditions need not be identical. Equal entries are not always repeated. Structures can show the parent of a compound that is named as a salt.

Experiments:
[1] = tested on: MB49 bladder cancer in situ; experiment: Doxorubicin (ADM)/R848 mixed lyophilized powder in bladder perfusion treatment of bladder tumor, tumor mass (Example G3); assay type: in vivo, mice; settings: after two bladder perfusions; compound formulation with hydroxypropyl methylcellulose as penetration enhancer
Experimental: Example G3: Application of doxorubicin (ADM) used in combination with resiquimod (R848) in the treatment of bladder tumor.
The in-situ models of bladder cancer in mice were established by the same method as in Example G1, the mixed lyophilized powder formulation of doxorubicin and […] was prepared for later use, and the mice were randomly divided into groups (Blank: perfusion of 5% glucose solution: ADM: perfusion of the […] solution dissolved in normal saline: R848: perfusion of the resiquimod suspension dispersed in 5% glucose solution: ADM+R848: perfusion of the mixed lyophilized powder formulation of […] and resiquimod dissolved in 5% glucose solution), wherein hydroxypropyl methylcellulose was added as a penetration enhancer component before the compound formulation was used for bladder perfusion treatment. After two times of the bladder perfusion in each group, the bladder cancer in the mice was obtained by dissection, and the tumor mass was recorded.

[2] = tested on: bladder in situ tumor (fLuc-MB49 cells); experiment: Combined perfusion of EPI and R837 hydrochloride in different ratios for bladder in situ tumor, fluorescence imaging and survival (Example B4); assay type: in vivo, mice; settings: for Survival rate: 14th day
[3] = 1-9 days, two perfusions; EPI 60 μg, R837 360 μg; compared with blank group
Experimental: Six mice in each of the four groups were perfused with the same dose of blank ultrapure water (ddH2O), R837 (360 μg), EPI (60 μg) and EPI (60 μg)+R837 (360 μg) for 1 hour, once a week, twice, and the body weight was recorded every other day. […] Next, we used a similar method to evaluate whether there was a usage range for the attenuation effect when EPI and R837 were used in combination in a mass ratio (1:10). Six mice in each of the four groups were perfused with the same dose of blank ultrapure water (ddH2O), R837 (600 μg), EPI (60 μg) and EPI (60 μg)+R837 (600 μg) for 1 hour, and the body weights was recorded every other day.

[4] = General formulation study of simple mixtures of epirubicin and imiquimod (stability, solubility versus pH); assay type: physicochemical
[5] = tested on: bladder in situ tumor (fLuc-MB49 cells); settings: mouse, in vivo
[6] = tested on: MB49 bladder cancer in situ; experiment: Pirarubicin (THP)/R837 mixed lyophilized powder in bladder perfusion treatment of bladder cancer, tumor mass (Example G2); assay type: in vivo, mice; settings: after two bladder perfusions, from tumor mass
Experimental: Example G2: Application of pirarubicin (THP) used in combination with R837 in the treatment of bladder cancer.
The mice were randomly divided into the following groups:
THP: perfusion of the pirarubicin solution dissolved in 5% glucose solution;
After two times of bladder perfusion treatment, the bladder cancer in the mice was obtained by dissection, and the tumor mass was recorded. […] The Guinness formula q=E(A+B)/(EA+EB−EA*EB) is used to calculate the drug synergy, wherein E(A+B) is the tumor inhibition rate in the compound formulation treatment group, and EA and EB are the tumor inhibition rates when the two components are used respectively.

[7] = tested on: bladder cancer; settings: TMX-101 gel formulation containing R837, bladder perfusion; cited from earlier work
[8] = tested on: bladder in situ tumor (fLuc-MB49 cells); experiment: Combined perfusion of THP and R837 hydrochloride for bladder in situ tumor, in vivo fluorescence imaging and survival (Example B2); design: species or system mice; settings: until 35 days
[9] = Day 0 (before the first perfusion)

Row | Structure (SMILES) | tumor inhibition rate [1] [%] | Survival rate [2] [%] | Mean fluorescence intensity of bladder in situ tumor tissue, group Mean [2, 9] | Mean fluorescence intensity of bladder in situ tumor tissue, group Mean ([2]; Day 7) | Mean fluorescence intensity of bladder in situ tumor tissue, group Mean ([2]; Day 14) | tumor inhibition rate [6] [%] | also measured
1 | COc1cccc2c1C(=O)c1c(O)c3c(c(O)c1C2=O)C[C@@](O)(C(=O)CO)C[C@@H]3O[C@H]1C[C@H](N)[C@H](O)[C@H](C)O1 [DOX, doxorubicin hydrochloride] | 8.6 |  |  |  |  |  | 
2 | COc1cccc2c1C(=O)c1c(O)c3c(c(O)c1C2=O)C[C@@](O)(C(=O)CO)C[C@@H]3O[C@H]1C[C@H](N)[C@@H](O)[C@H](C)O1 [EPI, epirubicin hydrochloride] |  | 67 | 1.957 10^5 | 3.893 10^5 | 10.8 10^5 |  | Mean fluorescence intensity of bladder in situ tumor tissue (single mice) ([2]; Day 14, listed as B4-3, hydrochloride): 12.8 10^5 and 10.9 10^5 and 8.7 10^5; body weights of the mice [3]: significantly lower
3 | CC(C)Cn1cnc2c(N)nc3ccccc3c21 [Sample R837, imiquimod] |  | 100 | 1.877 10^5 | 5.922 10^5 | 9.287 10^5 | 38.33 | pH above which imiquimod precipitates from the solution [4]: > 5.0; tumor fluorescence intensity / tumor inhibition effect [5]: no significant tumor inhibition effect; Mean fluorescence intensity of bladder in situ tumor tissue (single mice) ([2]; Day 7, listed as B4-2): 6.37 10^5 and 5.49 10^5 and 5.35 10^5 and 6.92 10^5 and 6.05 10^5; Mean fluorescence intensity of bladder in situ tumor tissue (single mice) ([2]; Day 14, listed as B4-2): 7.97 10^5 and 10.2 10^5 and 9.04 10^5 and 12.7 10^5 and 7.53 10^5 and 8.28 10^5; safety in clinical trial [7]: good safety
4 | CCOCc1nc2c(N)nc3ccccc3c2n1CC(C)(C)O [Sample R848, resiquimod] | 21.8 |  |  |  |  |  | 
5 | COc1cccc2c1C(=O)c1c(O)c3c(c(O)c1C2=O)C[C@@](O)(C(=O)CO)C[C@@H]3O[C@H]1C[C@H](N)[C@H](O[C@@H]2CCCCO2)[C@H](C)O1 [THP, pirarubicin hydrochloride] |  |  |  |  |  | 28.23 | Survival rate [8]: 60%
